Experimental findings from US20080234266A1, “Squaric Acid Derivatives II” (priority 2005, published 2008) are described below.

Where only a bound is given, the exact number is not on record here.

The target in this test is T1, CHK1 kinase (Homo sapiens, UniProt O14757).
T1 construct: glutathione S-transferase (GST); made in house; host or cells: Sf21 insect cells (S. frugiperda), baculovirus
T1 sequence (O14757 1-476): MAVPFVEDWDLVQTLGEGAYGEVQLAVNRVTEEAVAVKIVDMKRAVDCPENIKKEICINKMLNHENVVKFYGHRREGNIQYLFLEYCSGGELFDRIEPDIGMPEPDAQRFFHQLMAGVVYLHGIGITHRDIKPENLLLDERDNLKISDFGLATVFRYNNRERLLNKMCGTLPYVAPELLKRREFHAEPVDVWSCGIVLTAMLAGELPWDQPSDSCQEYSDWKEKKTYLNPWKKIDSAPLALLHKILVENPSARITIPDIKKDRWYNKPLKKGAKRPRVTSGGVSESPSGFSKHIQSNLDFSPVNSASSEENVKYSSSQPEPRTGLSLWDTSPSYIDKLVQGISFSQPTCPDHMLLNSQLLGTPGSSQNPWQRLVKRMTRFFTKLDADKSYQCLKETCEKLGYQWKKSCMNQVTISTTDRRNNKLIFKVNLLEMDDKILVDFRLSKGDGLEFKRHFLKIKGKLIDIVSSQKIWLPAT
As to the kind of experiment: Flashplate method (CHK1), measurement of the CHK1 kinase activity. The class given is biochemical. The note with it: class symbols; 'Affinity to receptors'. The protocol: CHK1 kinase is expressed for the purposes of protein production in insect cells (Sf21; S. frugiperda) and subsequent purification by affinity chromatography as fusion protein with glutathione S-transferase in a baculovirus expression vector. The cultivation, infection and digestion of the cells as well as the purification of the fusion protein by column chromatography are carried out in accordance with manufacturer-oriented generic working instructions.
The kinase activity is measured using various available measurement systems. In the scintillation proximity method (Sorg et al., J. of. Biomolecular Screening, 2002, 7, 11-19), the flashplate method or the filter binding test, the radioactive phosphorylation of a protein or peptide as substrate is measured using radioactively labelled ATP (γ^32P-ATP, (γ^33P-ATP). In the case of the presence of an inhibitory compound, a reduced radioactive signal, or none at all, can be detected. Furthermore, homogeneous time-resolved fluorescence resonance energy transfer (HTR-FRET) and fluorescence polarisation (FP) technologies are useful as assay methods (Sills et al., J. of Biomolecular Screening, 2002, 191-214).
The test plates used are 384-well streptavidin-coated Flashplates Plus® from Perkin Elmer (Cat.No. SMP410A001PK). The assay plate is equilibrated with 75 μl of assay buffer per well 30 min before commencement of the experiment. The buffer is sucked out before commencement of the experiment, and the components of the kinase reaction described below are pipetted onto the plate.
CHK1 kinase, a biotinylated substrate peptide (for example CHKtide: […]), is incubated with radioactively labelled ATP in the presence and absence of test substances at 30° Celsius and a total volume of 50 μl. The reaction is terminated using 25 μl of a 0.2 M EDTA solution. After incubation for 30 min at room temperature, the supernatants are filtered off with suction, and the wells are washed three times with 100 μl of 0.9% NaCl solution each time. The measurement of the bound radioactivity is carried out by means of a scintillation measuring instrument (Topcount NXT, Perkin-Elmer).
The full value used is the inhibitor-free kinase reaction. This should be approximately in the range 3000-4000 cpm. The pharmacological zero value used is staurosporin in a final concentration of 0.1 μM. The inhibitory values (IC50) are determined using the program RS1_MTS ( ).
Kinase reaction conditions per well:
0.15 μg of CHKtide ([…])
50 μl total volume (1-fold assay buffer reaction conditions)
Solutions used: • assay buffer:
0.1 mM Titriplex VI (EGTA
10 mM magnesium acetate 0.1% mercaptoethanol
pH=7.5 (to be set using hydrochloric acid) Bovine serum albumin (final concentration 0.1%) is not added until just before use. • stop solution:
0.2 M TitriplexIII (EDTA)
• γ^33P-ATP (Perkin-Elmer) • CHK1 kinase preparations: specific activity>50 U/mg • CHKtide solution: biotinylated peptide substrate (Biotrend) stored as stock solution (concentration 0.15 mg/ml).
With “3-(1H-benzimidazol-5-ylamino)-4-[(S)-1-(3-hydroxyphenyl)ethylamino]cyclobut-3-ene-1,2-dione [Compound A4]”, the IC50 is greater than 1000 nM.
Under “3-(3-hydroxybenzylamino)-4-(5-methyl-imidazo[1,2-a]pyridin-6-ylamino)cyclobut-3-ene-1,2-dione [Compound A56]” stands less than 1000 nM; under “3-(8-bromoimidazo[1,2-a]pyridin-6-ylamino)-4-(3-hydroxybenzylamino)cyclobut-3-ene-1,2-dione [Compound A60]”, less than 1000 nM; under “3-(8-bromoimidazo[1,2-a]pyridin-6-ylamino)-4-[(R)-1-(3-methoxyphenyl)ethylamino]-cyclobut-3-ene-1,2-dione [Compound A63]”, greater than 1000 nM.
As to “3-[3-(2-methoxyethyl)-3H-benzimidazol-5-ylamino]-4-[(R)-1-(3-methoxyphenyl)ethyl-amino]cyclobut-3-ene-1,2-dione [Compound A67]”, the IC50 was greater than 1000 nM.
As to “3-[(R)-1-(3-methoxyphenyl)ethylamino]-4-(5-methylimidazo[1,2-a]pyridin-6-ylamino)-cyclobut-3-ene-1,2-dione [Compound A58]”, the IC50 is greater than 1000 nM.
In turn, “3-[(R)-1-(3-methoxyphenyl)ethylamino]-4-(7-methylimidazo[1,2-a]pyridin-6-ylamino)-cyclobut-3-ene-1,2-dione [Compound A57]” gave an IC50 greater than 1000 nM.
Turning to “3-[(R)-1-(3-methoxyphenyl)ethylamino]-4-(8-methylimidazo[1,2-a]pyridin-6-ylamino)-cyclobut-3-ene-1,2-dione [Compound A59]”, the IC50 was greater than 1000 nM.
For `CC(Nc1c(Nc2ccc3[nH]ncc3c2)c(=O)c1=O)c1cccc(NC(N)=O)c1` (racemic) [Compound A145, 3-(1H-indazol-5-ylamino)-4-[(R,S)-1-(3-ureidophenyl)ethylamino]cyclobut-3-ene-1,2-dione], the IC50 is greater than 1000 nM.
Under `O=c1c(NCc2cccc(O)c2)c(Nc2ccc3[nH]cnc3c2)c1=O` [Compound A1, 3-(1H-benzimidazol-5-ylamino)-4-(3-hydroxybenzylamino)cyclobut-3-ene-1,2-dione] stands less than 100 nM.
With `COc1cccc([C@@H](C)Nc2c(Nc3ccc4[nH]cnc4c3)c(=O)c2=O)c1` [Compound A2, 3-(1H-benzimidazol-5-ylamino)-4-[(R)-1-(3-methoxyphenyl)ethylamino]cyclobut-3-ene-1,2-dione], the IC50 is less than 1000 nM.
As for `C[C@@H](Nc1c(Nc2ccc3[nH]cnc3c2)c(=O)c1=O)c1cccc(O)c1` [Compound A3, 3-(1H-benzimidazol-5-ylamino)-4-[(R)-1-(3-hydroxyphenyl)ethylamino]cyclobut-3-ene-1,2-dione], the 50% inhibitory concentration (IC50) is less than 100 nM.
With `NS(=O)(=O)c1cccc(CNc2c(Nc3ccc4[nH]cnc4c3)c(=O)c2=O)c1` [Compound A6, 3-(1H-benzimidazol-5-ylamino)-4-(3-amino-sulfonylbenzylamino)cyclobut-3-ene-1,2-dione], the IC50 was less than 1000 nM.
Take `O=c1c(NCc2cccc(O)c2)c(Nc2ccc3[nH]c(C(F)(F)F)nc3c2)c1=O` [Compound A10, 3-(1H-benzimidazol-2-trifluoromethyl-5-yl-amino)-4-(3-hydroxybenzylamino)cyclobut-3-ene-1,2-dione]: the IC50 was greater than 1000 nM.
In turn, `O=c1c(NCc2cccc(O)c2)c(Nc2cc3nc[nH]c3cc2Cl)c1=O` [Compound A12, 3-(1H-benzimidazol-6-chloro-5-ylamino)-4-(3-hydroxybenzylamino)cyclobut-3-ene-1,2-dione] registered an IC50 greater than 1000 nM.
The same measure for `O=c1c(NCc2cccc(O)c2)c(Nc2ccc3ncsc3c2)c1=O` [Compound A14, 3-(benzothiazol-6-ylamino)-4-(3-hydroxy-benzylamino)cyclobut-3-ene-1,2-dione]: less than 1000 nM.
Compound `O=c1c(NCc2cccc(O)c2)c(NCc2ccc3[nH]nnc3c2)c1=O` [Compound A15, 3-(1H-benzotriazol-5-ylmethylamino)-4-(3-hydroxybenzylamino)cyclobut-3-ene-1,2-dione] had an IC50 of less than 1000 nM.
Consider `O=c1c(NCc2cccc(O)c2)c(Nc2ccc3cc[nH]c3c2)c1=O` [Compound A28, 3-(1H-indol-6-ylamino)-4-(3-hydroxybenzyl-amino)cyclobut-3-ene-1,2-dione], for which the IC50 is greater than 1000 nM.
Turning to `O=c1c(NCc2cccc(O)c2)c(Nc2ccc3[nH]ccc3c2)c1=O` [Compound A29, 3-(1H-indol-5-ylamino)-4-(3-hydroxybenzyl-amino)cyclobut-3-ene-1,2-dione], the IC50 is greater than 1000 nM.
The compound `O=c1[nH]c2ccc(Nc3c(NCc4cccc(O)c4)c(=O)c3=O)cc2[nH]1` [Compound A30, 4-(2-oxo-2,3-dihydro-1H-benzimidazol-5-yl-amino)-3-(3-hydroxybenzylamino)cyclobut-3-ene-1,2-dione] came in with an IC50 greater than 1000 nM.
Compound `O=c1c(NCc2cccc(F)c2)c(Nc2ccc3[nH]cnc3c2)c1=O` [Compound A31, 3-(1H-benzimidazol-5-ylamino)-4-(3-fluoro-benzylamino)cyclobut-3-ene-1,2-dione] came in with an IC50 greater than 1000 nM.
The same measure for `NC(=O)c1c[nH]c2ccc(Nc3c(NCc4cccc(O)c4)c(=O)c3=O)cc12` [Compound A32, 3-(3-aminocarbonyl-1H-indol-5-ylamino)-4-(3-hydroxybenzylamino)cyclobut-3-ene-1,2-dione]: greater than 1000 nM; for `O=c1c(NCc2cccc(Cl)c2)c(Nc2ccc3[nH]cnc3c2)c1=O` [Compound A33, 3-(1H-benzimidazol-5-ylamino)-4-(3-chloro-benzylamino)cyclobut-3-ene-1,2-dione]: greater than 1000 nM; for `O=c1c(NCc2cccc(-n3cccc3)c2)c(Nc2ccc3[nH]cnc3c2)c1=O` [Compound A35, 3-(1H-benzimidazol-5-ylamino)-4-(3-pyrrol-1-ylbenzylamino)cyclobut-3-ene-1,2-dione]: greater than 1000 nM.
For `O=c1c(NCc2cc(Br)ccc2O)c(Nc2ccc3[nH]cnc3c2)c1=O` [Compound A36, 3-(1H-benzimidazol-5-ylamino)-4-(3-bromo-6-hydroxybenzylamino)cyclobut-3-ene-1,2-dione], the IC50 was greater than 1000 nM.
`O=c1c(NCc2cccc(C(F)(F)F)c2)c(Nc2ccc3[nH]cnc3c2)c1=O` [Compound A37, 3-(1H-benzimidazol-5-ylamino)-4-(3-trifluoro-methylbenzylamino)cyclobut-3-ene-1,2-dione]: the IC50 is greater than 1000 nM.
For `CN(Cc1cccc(O)c1)c1c(Nc2ccc3[nH]cnc3c2)c(=O)c1=O` [Compound A38, 3-(1H-benzimidazol-5-ylamino)-4-[(3-hydroxybenzyl)methylamino]cyclobut-3-ene-1,2-dione], the IC50 is less than 1000 nM.
`Cc1cc2cc(Nc3c(NCc4cccc(O)c4)c(=O)c3=O)ccc2[nH]1` [Compound A39, 3-(2-methyl-1H-indol-5-ylamino)-4-(3-hydroxybenzylamino)cyclobut-3-ene-1,2-dione]: the IC50 is greater than 1000 nM.
As for `O=c1c(NCc2cccc(O)c2)c(Nc2ccc3[nH]c(S)nc3c2)c1=O` [Compound A40, 3-(2-mercapto-1H-benzimidazol-5-ylamino)-4-(3-hydroxybenzylamino)cyclobut-3-ene-1,2-dione], the IC50 is greater than 1000 nM.

As usually defined, the IC50 is the concentration needed to halve the response being measured. A high value points to lower potency.
